Laboratory results taken from publication PMC5218480 (PLoS ONE, 2017).

System: MV-4-11 cells
Assay: Gene expression microarray analysis (Affymetrix PrimeView) and GSEA
Assay type: cell-based, human
Design: RFU PODN (11730768_x_at) / Fold change /veh PODN (11730768_x_at) / RFU LINC00158 (11744669_a_at) / Fold change /veh LINC00158 (11744669_a_at) / RFU DUSP10 (11751237_a_at) / Fold change /veh DUSP10 (11751237_a_at) / RFU ID3 (11757404_x_at) / Fold change /veh ID3 (11757404_x_at) / RFU PLEKHG5 (11737974_s_at) / Fold change /veh PLEKHG5 (11737974_s_at) / RFU LRRC4B (11730491_at) / Fold change /veh LRRC4B (11730491_at) / RFU GIMAP4 (11747438_a_at) / Fold change /veh GIMAP4 (11747438_a_at) / RFU KRT8 (11758183_x_at) / Fold change /veh KRT8 (11758183_x_at) / RFU CNN1 (11734310_a_at) / Fold change /veh CNN1 (11734310_a_at) / RFU VPS37D (11726825_at) / Fold change /veh VPS37D (11726825_at) / RFU C10orf10 (11716522_x_at) / Fold change /veh C10orf10 (11716522_x_at) / RFU KIR2DL2 /// KIR2DL4 /// KIR2DL5A /// KIR2DL5B /// KIR2DS1 /// KIR2DS2 /// KIR2DS3 /// KIR2DS4 /// KIR3DL3 /// KIR3DL3 /// KIR3DS1 (11738374_at) / Fold change /veh KIR2DL2 /// KIR2DL4 /// KIR2DL5A /// KIR2DL5B /// KIR2DS1 /// KIR2DS2 /// KIR2DS3 /// KIR2DS4 /// KIR3DL3 /// KIR3DL3 /// KIR3DS1 (11738374_at) / RFU C1QL1 (11718748_at) / Fold change /veh C1QL1 (11718748_at) / RFU TMPRSS4 (11747572_a_at) / Fold change /veh TMPRSS4 (11747572_a_at) / RFU HAMP (11756126_x_at) / Fold change /veh HAMP (11756126_x_at) / RFU RNFT2 (11725882_a_at) / Fold change /veh RNFT2 (11725882_a_at) / RFU NR4A2 (11747474_a_at) / Fold change /veh NR4A2 (11747474_a_at) / RFU ABCC12 (11746883_a_at) / Fold change /veh ABCC12 (11746883_a_at) / RFU TMEM136 (11760407_x_at) / Fold change /veh TMEM136 (11760407_x_at) / RFU CLDN22 /// WWC2 (11732394_at) / Fold change /veh CLDN22 /// WWC2 (11732394_at) / RFU HLA-DPB1 (11760878_x_at) / Fold change /veh HLA-DPB1 (11760878_x_at) / RFU SPINT1 (11716480_a_at) / Fold change /veh SPINT1 (11716480_a_at) / RFU GAP43 (11754022_s_at) / Fold change /veh GAP43 (11754022_s_at) / RFU A4GNT (11735810_at) / Fold change /veh A4GNT (11735810_at) / RFU PRB3 (11715151_x_at) / Fold change /veh PRB3 (11715151_x_at) / RFU TUBB4B (11761932_at) / Fold change /veh TUBB4B (11761932_at) / RFU CAPN14 (11732068_a_at) / Fold change /veh CAPN14 (11732068_a_at) / RFU TMCC2 (11721928_a_at) / Fold change /veh TMCC2 (11721928_a_at) / RFU IRGQ (11745062_a_at) / Fold change /veh IRGQ (11745062_a_at) / RFU FAM174B (11720279_a_at) / Fold change /veh FAM174B (11720279_a_at) / RFU TMPRSS4 (11748680_a_at) / Fold change /veh TMPRSS4 (11748680_a_at) / RFU FAM212B (11763350_a_at) / Fold change /veh FAM212B (11763350_a_at) / RFU PLEKHG5 (11743358_a_at) / Fold change /veh PLEKHG5 (11743358_a_at) / RFU ZSCAN30 (11745921_a_at) / Fold change /veh ZSCAN30 (11745921_a_at) / RFU CMKLR1 (11741424_a_at) / Fold change /veh CMKLR1 (11741424_a_at) / RFU LOC101060620 /// MAPK8IP1 (11723275_at) / Fold change /veh LOC101060620 /// MAPK8IP1 (11723275_at) / RFU SPTSSB (11747773_x_at) / Fold change /veh SPTSSB (11747773_x_at) / RFU PRSS12 (11739890_at) / Fold change /veh PRSS12 (11739890_at) / RFU BIN1 (11741810_x_at) / Fold change /veh BIN1 (11741810_x_at) / RFU WNT11 (11732464_a_at) / Fold change /veh WNT11 (11732464_a_at) / RFU C10orf10 (11716521_a_at) / Fold change /veh C10orf10 (11716521_a_at) / RFU C5orf56 (11738089_at) / Fold change /veh C5orf56 (11738089_at) / RFU CYB561 (11721691_x_at) / Fold change /veh CYB561 (11721691_x_at) / RFU ANKRD19P (11752326_a_at) / Fold change /veh ANKRD19P (11752326_a_at) / RFU OR2T12 /// OR2T33 /// OR2T8 (11738714_s_at) / Fold change /veh OR2T12 /// OR2T33 /// OR2T8 (11738714_s_at) / RFU VCAN (11748164_a_at) / Fold change /veh VCAN (11748164_a_at) / RFU JSRP1 (11732532_at) / Fold change /veh JSRP1 (11732532_at) / RFU KRTAP10-11 (11738290_x_at) / Fold change /veh KRTAP10-11 (11738290_x_at) / RFU MYO3A (11730013_a_at) / Fold change /veh MYO3A (11730013_a_at) / RFU EBF3 (11725865_a_at) / Fold change /veh EBF3 (11725865_a_at) / RFU CAMK2N1 (11719241_x_at) / Fold change /veh CAMK2N1 (11719241_x_at) / RFU C5orf56 (11738088_a_at) / Fold change /veh C5orf56 (11738088_a_at) / RFU OLFML3 (11715873_a_at) / Fold change /veh OLFML3 (11715873_a_at) / RFU LOC100653217 /// NTM (11731650_a_at) / Fold change /veh LOC100653217 /// NTM (11731650_a_at) / RFU MAPK11 (11762145_a_at) / Fold change /veh MAPK11 (11762145_a_at) / RFU FIZ1 (11724087_x_at) / Fold change /veh FIZ1 (11724087_x_at) / RFU OASL (11726364_x_at) / Fold change /veh OASL (11726364_x_at) / RFU SOX15 (11748057_x_at) / Fold change /veh SOX15 (11748057_x_at) / RFU CD79A (11719716_a_at) / Fold change /veh CD79A (11719716_a_at) / RFU HIST1H1D (11736915_at) / Fold change /veh HIST1H1D (11736915_at) / RFU CASKIN2 (11723855_a_at) / Fold change /veh CASKIN2 (11723855_a_at) / RFU LOC730098 (11760151_x_at) / Fold change /veh LOC730098 (11760151_x_at) / RFU OR4N2 (11742367_at) / Fold change /veh OR4N2 (11742367_at) / RFU PRRT2 (11749266_a_at) / Fold change /veh PRRT2 (11749266_a_at) / RFU SNX32 (11753110_a_at) / Fold change /veh SNX32 (11753110_a_at) / RFU CDHR5 (11726645_a_at) / Fold change /veh CDHR5 (11726645_a_at) / RFU RCAN1 (11760418_a_at) / Fold change /veh RCAN1 (11760418_a_at) / RFU FAM167A (11723789_a_at) / Fold change /veh FAM167A (11723789_a_at) / RFU FAM26E (11764081_at) / Fold change /veh FAM26E (11764081_at) / RFU ISYNA1 (11749810_s_at) / Fold change /veh ISYNA1 (11749810_s_at) / RFU ACY1 (11761880_at) / Fold change /veh ACY1 (11761880_at) / RFU 11764098_at / Fold change /veh 11764098_at / RFU SAMD14 (11745864_x_at) / Fold change /veh SAMD14 (11745864_x_at) / RFU NPB (11741838_a_at) / Fold change /veh NPB (11741838_a_at) / RFU TMPRSS6 (11731388_a_at) / Fold change /veh TMPRSS6 (11731388_a_at) / RFU KRTAP10-2 (11738614_at) / Fold change /veh KRTAP10-2 (11738614_at) / RFU ARHGAP8 /// PRR5-ARHGAP8 (11727945_x_at) / Fold change /veh ARHGAP8 /// PRR5-ARHGAP8 (11727945_x_at) / RFU KRTAP5-7 /// NADSYN1 (11734609_at) / Fold change /veh KRTAP5-7 /// NADSYN1 (11734609_at) / RFU RASL12 (11751679_a_at) / Fold change /veh RASL12 (11751679_a_at) / RFU CDKN2B (11736163_a_at) / Fold change /veh CDKN2B (11736163_a_at) / RFU PRF1 (11729649_at) / Fold change /veh PRF1 (11729649_at) / RFU, ZNF638 /// ZNF638-IT1 / Fold change vs veh, ZNF638 /// ZNF638-IT1 / RFU, PANK3 / Fold change vs veh, PANK3 / RFU, SH3YL1 / Fold change vs veh, SH3YL1 / RFU, ZEB2 / Fold change vs veh, ZEB2 / RFU, NRIP1 / Fold change vs veh, NRIP1 / RFU, PTTG1IP / Fold change vs veh, PTTG1IP / RFU, CAPN2 / Fold change vs veh, CAPN2 / RFU, MED14 / Fold change vs veh, MED14 / RFU, SNORA58 / Fold change vs veh, SNORA58 / RFU, C1orf63 / Fold change vs veh, C1orf63 / RFU, LRRFIP1 / Fold change vs veh, LRRFIP1 / RFU, NDUFAF7 / Fold change vs veh, NDUFAF7 / RFU, SLC12A2 / Fold change vs veh, SLC12A2 / RFU, IBTK / Fold change vs veh, IBTK / RFU, ESF1 / Fold change vs veh, ESF1 / Fold change vs veh, TMEM50B / RFU, TAOK1 / Fold change vs veh, TAOK1 / RFU, ACBD3 / Fold change vs veh, ACBD3 / RFU, TMA16 / Fold change vs veh, TMA16 / RFU, RWDD3 / Fold change vs veh, RWDD3 / RFU, BCAT1 / Fold change vs veh, BCAT1 / RFU, EDEM3 / Fold change vs veh, EDEM3 / RFU, TMEM33 / Fold change vs veh, TMEM33 / RFU, WDR75 / Fold change vs veh, WDR75 / RFU, AHCTF1 / Fold change vs veh, AHCTF1 / RFU, TFRC / Fold change vs veh, TFRC / RFU, ZDHHC17 / Fold change vs veh, ZDHHC17 / RFU, NOM1 / Fold change vs veh, NOM1 / RFU, ARL8B / Fold change vs veh, ARL8B / RFU, ZBTB11 / Fold change vs veh, ZBTB11 / RFU, TAMM41 / Fold change vs veh, TAMM41 / RFU, KIAA1704 /// LOC100996395 / Fold change vs veh, KIAA1704 /// LOC100996395 / RFU, ING1 / Fold change vs veh, ING1 / RFU, TRMT61B / Fold change vs veh, TRMT61B / RFU, FUBP3 / Fold change vs veh, FUBP3 / RFU, TP53 / Fold change vs veh, TP53 / RFU, TNKS2 / Fold change vs veh, TNKS2 / RFU, ZFP14 / Fold change vs veh, ZFP14 / RFU, ACTR2 / Fold change vs veh, ACTR2 / RFU, PPP3R1 / Fold change vs veh, PPP3R1 / RFU, PIK3R1 / Fold change vs veh, PIK3R1 / RFU, HNRNPA1 / Fold change vs veh, HNRNPA1 / RFU, RNF170 / Fold change vs veh, RNF170 / RFU, ZNF28 / Fold change vs veh, ZNF28 / RFU, RNGTT / Fold change vs veh, RNGTT / RFU, OGT / Fold change vs veh, OGT / RFU, BRD1 / Fold change vs veh, BRD1 / RFU, MARS / Fold change vs veh, MARS / RFU, ZNF655 / Fold change vs veh, ZNF655 / RFU, FAHD1 / Fold change vs veh, FAHD1 / RFU, BDP1 / Fold change vs veh, BDP1 / RFU, LRRCC1 / Fold change vs veh, LRRCC1 / RFU, ARID1A / Fold change vs veh, ARID1A / RFU, ZNF146 / Fold change vs veh, ZNF146 / RFU, ZNF330 / Fold change vs veh, ZNF330 / RFU, GPN3 / Fold change vs veh, GPN3 / RFU, C9orf123 / Fold change vs veh, C9orf123 / RFU, N4BP2L2 / Fold change vs veh, N4BP2L2 / RFU, ARFIP1 / Fold change vs veh, ARFIP1 / RFU, FAM179B / Fold change vs veh, FAM179B / RFU, BCL10 / Fold change vs veh, BCL10 / RFU, UHRF1BP1L / Fold change vs veh, UHRF1BP1L / RFU, BET1 / Fold change vs veh, BET1 / RFU, CNOT2 / Fold change vs veh, CNOT2 / RFU, ZNF268 / Fold change vs veh, ZNF268 / Fold change vs veh, ZNF507 / RFU, DGCR2 / Fold change vs veh, DGCR2 / RFU, WDSUB1 / Fold change vs veh, WDSUB1 / Fold change vs veh, HSP90B1 /// MIR3652 / RFU, ADSS / Fold change vs veh, ADSS / RFU, GK / Fold change vs veh, GK / RFU, ZNF148 / Fold change vs veh, ZNF148 / RFU, TAF9 / Fold change vs veh, TAF9 / RFU, SLC1A5 / Fold change vs veh, SLC1A5 / RFU, SLMO2 / Fold change vs veh, SLMO2 / RFU, ABCC4 / Fold change vs veh, ABCC4 / RFU, LOC101060439 /// RAP1B / Fold change vs veh, LOC101060439 /// RAP1B / RFU, RFX7 / Fold change vs veh, RFX7 / RFU, GTPBP10 / Fold change vs veh, GTPBP10 / RFU, CNEP1R1 / Fold change vs veh, CNEP1R1 / RFU, BIVM-ERCC5 /// ERCC5 / Fold change vs veh, BIVM-ERCC5 /// ERCC5 / RFU, ILF3 / Fold change vs veh, ILF3 / RFU 11762660_at / Fold change /veh 11762660_at / RFU VCAN (11757783_s_at) / Fold change /veh VCAN (11757783_s_at) / RFU DDX43 (11728927_at) / Fold change /veh DDX43 (11728927_at) / RFU KRT8 (11758188_x_at) / Fold change /veh KRT8 (11758188_x_at) / RFU NKD1 (11759106_at) / Fold change /veh NKD1 (11759106_at) / RFU SRD5A1 (11742802_a_at) / Fold change /veh SRD5A1 (11742802_a_at) / RFU TPSAB1 /// TPSB2 (11721975_s_at) / Fold change /veh TPSAB1 /// TPSB2 (11721975_s_at) / RFU GSTM3 (11746129_a_at) / Fold change /veh GSTM3 (11746129_a_at) / RFU IL23R (11737362_x_at) / Fold change /veh IL23R (11737362_x_at) / RFU TMEM51 (11727254_a_at) / Fold change /veh TMEM51 (11727254_a_at) / RFU PIWIL2 (11732686_x_at) / Fold change /veh PIWIL2 (11732686_x_at) / RFU ORM1 (11744905_x_at) / Fold change /veh ORM1 (11744905_x_at) / RFU CCDC152 (11743942_at) / Fold change /veh CCDC152 (11743942_at) / RFU ECM1 (11717891_a_at) / Fold change /veh ECM1 (11717891_a_at) / RFU IL23R (11748794_a_at) / Fold change /veh IL23R (11748794_a_at) / RFU TNFAIP8L3 (11732012_x_at) / Fold change /veh TNFAIP8L3 (11732012_x_at) / RFU MBOAT4 (11741988_at) / Fold change /veh MBOAT4 (11741988_at) / RFU 11764193_at / Fold change /veh 11764193_at / RFU TMEM53 (11763286_at) / Fold change /veh TMEM53 (11763286_at) / RFU MAGEB2 (11727129_at) / Fold change /veh MAGEB2 (11727129_at) / RFU TMEM200A (11744735_a_at) / Fold change /veh TMEM200A (11744735_a_at) / RFU CCDC152 (11751479_a_at) / Fold change /veh CCDC152 (11751479_a_at) / RFU FAM211A (11726209_a_at) / Fold change /veh FAM211A (11726209_a_at) / RFU RGS16 (11746705_a_at) / Fold change /veh RGS16 (11746705_a_at) / RFU VCAN (11755009_s_at) / Fold change /veh VCAN (11755009_s_at) / RFU RHOB (11743442_s_at) / Fold change /veh RHOB (11743442_s_at) / RFU RGS16 (11720943_a_at) / Fold change /veh RGS16 (11720943_a_at) / RFU RGS16 (11720944_at) / Fold change /veh RGS16 (11720944_at) / RFU, VPS4B / Fold change vs veh, VPS4B / RFU, CREB1 / Fold change vs veh, CREB1 / RFU, DNAJC13 / Fold change vs veh, DNAJC13 / RFU, GNAQ / Fold change vs veh, GNAQ / RFU, CDK5R1 / Fold change vs veh, CDK5R1 / RFU, ZRANB3 / Fold change vs veh, ZRANB3 / RFU, CUL4A / Fold change vs veh, CUL4A / RFU, CCNY / Fold change vs veh, CCNY / RFU, UFL1 / Fold change vs veh, UFL1 / RFU, COG3 / Fold change vs veh, COG3 / RFU, DIAPH2 / Fold change vs veh, DIAPH2 / RFU, SKA2 / Fold change vs veh, SKA2 / RFU, AFF3 / Fold change vs veh, AFF3 / RFU, LMF1 / Fold change vs veh, LMF1 / RFU, IPO11 / Fold change vs veh, IPO11 / RFU, DFFB / Fold change vs veh, DFFB / RFU, FOXP1 / Fold change vs veh, FOXP1 / RFU, CARD8 / Fold change vs veh, CARD8 / RFU, STRN3 / Fold change vs veh, STRN3 / RFU, ADK / Fold change vs veh, ADK / RFU, RASSF2 / Fold change vs veh, RASSF2 / RFU, WIPF1 / Fold change vs veh, WIPF1 / RFU, LARP1B / Fold change vs veh, LARP1B / RFU, RASA1 / Fold change vs veh, RASA1 / RFU, RB1 / Fold change vs veh, RB1 / RFU, PPFIA1 / Fold change vs veh, PPFIA1 / RFU, MAT2A / Fold change vs veh, MAT2A / RFU, CCT5 / Fold change vs veh, CCT5 / RFU, WDR92 / Fold change vs veh, WDR92 / RFU, CUX1 / Fold change vs veh, CUX1 / RFU, TTC7A / Fold change vs veh, TTC7A / RFU, TMEM135 / Fold change vs veh, TMEM135 / RFU, DEPTOR / Fold change vs veh, DEPTOR / RFU, CPM / Fold change vs veh, CPM / RFU, DNAJB6 / Fold change vs veh, DNAJB6 / RFU, CACNA2D3 / Fold change vs veh, CACNA2D3 / RFU, DTX4 / Fold change vs veh, DTX4 / RFU, TFCP2 / Fold change vs veh, TFCP2 / RFU, GMCL1 /// GMCL1P1 / Fold change vs veh, GMCL1 /// GMCL1P1 / RFU, AEBP2 / Fold change vs veh, AEBP2 / RFU, SNHG1 /// SNORD22 /// SNORD25 /// SNORD26 /// SNORD27 /// SNORD28 /// SNORD29 /// SNORD31 / Fold change vs veh, SNHG1 /// SNORD22 /// SNORD25 /// SNORD26 /// SNORD27 /// SNORD28 /// SNORD29 /// SNORD31 / Fold change (Aza/veh), C12orf56 (ProbeSet 11735607_a_at) / Fold change (ACY-1035/veh), C12orf56 (ProbeSet 11735607_a_at) / Fold change (Aza/veh), FGFR1OP (ProbeSet 11751329_s_at) / Fold change (ACY-1035/veh), FGFR1OP (ProbeSet 11751329_s_at) / Fold change (Aza/veh), VPS36 (ProbeSet 11739960_a_at) / Fold change (ACY-1035/veh), VPS36 (ProbeSet 11739960_a_at) / RFU SYPL1 (11715823_x_at) / Fold change /veh SYPL1 (11715823_x_at) / RFU IGFBP7 (11715501_s_at) / Fold change /veh IGFBP7 (11715501_s_at) / RFU REEP3 (11722064_at) / Fold change /veh REEP3 (11722064_at) / RFU IGLL1 (11728026_x_at) / Fold change /veh IGLL1 (11728026_x_at): dose or concentration left out as unconfirmed
Conditions: ProbeSet 11733176_x_at; LIST B

`Nc1ccc(-c2cccs2)cc1NC(=O)c1ccc2c(c1)cc(C1CC1)n2CCN1CCOCC1` [ACY-1035] was tested, and the “Fold change vs veh, ZNF507” value was 0.90.
